In patent US8871753B2, “Macrocyclic compounds and their use as kinase inhibitors” (Incyte Corporation, priority 2008, dated 2014):
Structures can show the parent of a compound that is named as a salt. Where two headings read alike, the source gives them in different places. Each block holds one molecule with its values, some of them ahead of it.

Experiments:
Type in all cases: biochemical
[1] = target: T1, human JAK1 (a.a. 837-1142) (Homo sapiens, UniProt P23458); assay: In vitro JAK kinase assay (HTRF, phosphorylation of a biotinylated peptide), JAK1; details: read-out: JAK1 IC50
T1 construct: human JAK1 (a.a. 837-1142); His tag (N); made in house; host or cells: insect cells (baculovirus)
T1 sequence (P23458 849-1154): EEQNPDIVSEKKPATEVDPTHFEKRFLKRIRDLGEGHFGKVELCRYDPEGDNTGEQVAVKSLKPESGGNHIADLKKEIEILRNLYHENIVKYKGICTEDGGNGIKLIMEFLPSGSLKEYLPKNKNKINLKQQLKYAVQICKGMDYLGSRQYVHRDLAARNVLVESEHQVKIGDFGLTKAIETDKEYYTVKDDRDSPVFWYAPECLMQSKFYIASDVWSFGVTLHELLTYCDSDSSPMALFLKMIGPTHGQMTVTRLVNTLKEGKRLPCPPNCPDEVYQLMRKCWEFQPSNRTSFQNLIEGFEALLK
Procedure, shortened: (§1)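 Kinase activity was measured as phosphorylation of a biotinylated peptide, with ATP at 90 μM for JAK1, 30 μM for JAK2 and 3 μM for JAK3. Reactions ran 1 hr at room temperature, were stopped with EDTA plus SA-APC and Eu-Py20, and were read by HTRF after 40 minutes of antibody binding.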

[2] = target: T2, human JAK3 (a.a. 781-1124) (Homo sapiens, UniProt P52333); assay: In vitro JAK kinase assay (HTRF, phosphorylation of a biotinylated peptide), JAK3
T2 construct: JAK3 (a.a. 781-1124); His tag (N); made in house; host or cells: insect cells (baculovirus)
T2 sequence (P52333 781-1124): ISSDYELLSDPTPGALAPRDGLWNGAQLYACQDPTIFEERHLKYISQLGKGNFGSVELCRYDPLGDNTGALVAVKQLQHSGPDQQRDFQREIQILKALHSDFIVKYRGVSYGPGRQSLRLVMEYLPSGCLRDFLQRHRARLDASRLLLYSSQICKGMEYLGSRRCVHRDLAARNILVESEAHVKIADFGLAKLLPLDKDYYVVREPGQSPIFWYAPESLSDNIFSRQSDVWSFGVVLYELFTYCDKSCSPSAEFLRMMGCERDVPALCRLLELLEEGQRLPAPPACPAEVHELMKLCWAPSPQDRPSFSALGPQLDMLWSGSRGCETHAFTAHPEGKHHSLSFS
Procedure, shortened: as §1

[3] = target: T3, Recombinant Human Anaplastic Lymphoma Kinase (Homo sapiens, UniProt Q9UM73); assay: ALK HTRF kinase assay
T3 construct: purchased Invitrogen, Carlsbad, Calif
T3 sequence (Q9UM73 19-1620): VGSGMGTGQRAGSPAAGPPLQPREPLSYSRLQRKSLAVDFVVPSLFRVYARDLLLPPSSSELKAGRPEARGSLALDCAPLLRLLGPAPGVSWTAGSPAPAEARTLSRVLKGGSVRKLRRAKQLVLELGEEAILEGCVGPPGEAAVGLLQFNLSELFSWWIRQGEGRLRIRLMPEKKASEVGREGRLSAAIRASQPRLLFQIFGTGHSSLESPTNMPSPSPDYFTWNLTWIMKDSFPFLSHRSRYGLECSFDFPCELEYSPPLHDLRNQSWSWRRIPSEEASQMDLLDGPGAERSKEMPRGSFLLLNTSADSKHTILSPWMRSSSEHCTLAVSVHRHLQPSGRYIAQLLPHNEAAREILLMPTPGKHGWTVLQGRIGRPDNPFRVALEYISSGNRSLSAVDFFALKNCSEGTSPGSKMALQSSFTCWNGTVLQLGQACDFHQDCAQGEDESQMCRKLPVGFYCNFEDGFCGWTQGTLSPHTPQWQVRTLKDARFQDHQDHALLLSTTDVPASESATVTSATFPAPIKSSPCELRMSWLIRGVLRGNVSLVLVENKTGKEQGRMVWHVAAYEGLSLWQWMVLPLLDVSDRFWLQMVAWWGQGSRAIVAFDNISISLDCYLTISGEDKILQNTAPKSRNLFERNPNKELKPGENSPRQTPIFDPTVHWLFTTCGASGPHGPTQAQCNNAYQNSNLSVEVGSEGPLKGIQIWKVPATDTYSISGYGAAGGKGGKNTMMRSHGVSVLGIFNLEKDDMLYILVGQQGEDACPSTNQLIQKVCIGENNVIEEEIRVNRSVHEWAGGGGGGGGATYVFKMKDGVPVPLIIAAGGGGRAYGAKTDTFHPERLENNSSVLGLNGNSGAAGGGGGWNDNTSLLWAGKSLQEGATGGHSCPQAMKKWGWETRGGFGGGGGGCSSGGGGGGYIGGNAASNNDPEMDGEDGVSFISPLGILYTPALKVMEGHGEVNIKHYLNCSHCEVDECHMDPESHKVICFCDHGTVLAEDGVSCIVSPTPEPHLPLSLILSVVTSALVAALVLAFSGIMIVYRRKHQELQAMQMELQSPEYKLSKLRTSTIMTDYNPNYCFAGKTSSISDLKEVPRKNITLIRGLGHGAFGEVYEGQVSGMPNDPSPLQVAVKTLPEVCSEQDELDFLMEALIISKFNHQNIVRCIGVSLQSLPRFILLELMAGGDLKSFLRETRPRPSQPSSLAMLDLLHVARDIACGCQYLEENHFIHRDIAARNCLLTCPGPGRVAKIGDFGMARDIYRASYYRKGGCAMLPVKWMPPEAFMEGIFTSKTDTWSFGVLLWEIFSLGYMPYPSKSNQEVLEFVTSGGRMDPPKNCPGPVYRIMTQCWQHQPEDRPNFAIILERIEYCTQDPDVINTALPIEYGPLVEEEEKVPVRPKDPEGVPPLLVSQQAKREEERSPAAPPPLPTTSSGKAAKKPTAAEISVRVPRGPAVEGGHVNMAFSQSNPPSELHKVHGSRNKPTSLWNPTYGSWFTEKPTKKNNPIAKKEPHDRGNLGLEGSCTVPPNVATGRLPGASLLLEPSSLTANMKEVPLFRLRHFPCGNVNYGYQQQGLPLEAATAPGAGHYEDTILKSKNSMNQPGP
Procedure, shortened: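 Kinase activity of the recombinant human protein is measured on a biotinylated peptide, with a Eu-W1024 anti-phosphotyrosine antibody and streptavidin-allophycocyanin generating the homogeneous time-resolved fluorescence signal. Inhibition curves are fitted to yield IC50.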

TYK2 = TYK2 (Homo sapiens, UniProt P29597); assay: TYK2 kinase inhibition (Table A1)
Chain of TYK2 (P29597 whole entry): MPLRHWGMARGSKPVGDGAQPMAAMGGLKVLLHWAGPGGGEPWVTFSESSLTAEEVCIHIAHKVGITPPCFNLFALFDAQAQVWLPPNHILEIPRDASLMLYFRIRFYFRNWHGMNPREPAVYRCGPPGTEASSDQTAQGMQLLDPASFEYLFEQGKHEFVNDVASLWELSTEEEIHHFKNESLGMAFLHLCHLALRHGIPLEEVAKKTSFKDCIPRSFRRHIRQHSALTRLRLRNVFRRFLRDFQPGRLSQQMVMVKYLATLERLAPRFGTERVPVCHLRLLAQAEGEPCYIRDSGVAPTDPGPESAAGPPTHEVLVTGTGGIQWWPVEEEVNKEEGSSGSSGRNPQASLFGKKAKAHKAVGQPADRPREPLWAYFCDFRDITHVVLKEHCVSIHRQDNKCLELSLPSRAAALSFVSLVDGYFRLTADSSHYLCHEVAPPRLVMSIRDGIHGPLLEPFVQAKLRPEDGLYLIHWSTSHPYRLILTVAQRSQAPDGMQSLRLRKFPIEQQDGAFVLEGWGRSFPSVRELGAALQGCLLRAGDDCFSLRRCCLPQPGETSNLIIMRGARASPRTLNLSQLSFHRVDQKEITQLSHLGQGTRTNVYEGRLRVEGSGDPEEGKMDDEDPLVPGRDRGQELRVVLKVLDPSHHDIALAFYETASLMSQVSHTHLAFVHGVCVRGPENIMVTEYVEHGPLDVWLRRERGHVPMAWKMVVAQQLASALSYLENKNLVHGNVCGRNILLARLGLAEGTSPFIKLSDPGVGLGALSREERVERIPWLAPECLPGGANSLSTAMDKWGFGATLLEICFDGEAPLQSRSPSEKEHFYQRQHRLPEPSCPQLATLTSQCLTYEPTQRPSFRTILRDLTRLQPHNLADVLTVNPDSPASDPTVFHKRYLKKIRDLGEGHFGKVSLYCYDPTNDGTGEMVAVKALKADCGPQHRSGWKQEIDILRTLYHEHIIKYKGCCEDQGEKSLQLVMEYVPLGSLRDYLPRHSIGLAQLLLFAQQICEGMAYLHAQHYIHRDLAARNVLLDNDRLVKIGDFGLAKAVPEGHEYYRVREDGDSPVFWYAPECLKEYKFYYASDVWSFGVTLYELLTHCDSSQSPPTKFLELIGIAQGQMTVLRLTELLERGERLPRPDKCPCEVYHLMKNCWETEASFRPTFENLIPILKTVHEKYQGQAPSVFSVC

[4] = target: T4, human JAK2 (a.a. 828-1132) (Homo sapiens, UniProt O60674); assay: In vitro JAK kinase assay (HTRF, phosphorylation of a biotinylated peptide), JAK2
T4 construct: JAK2 (a.a. 828-1132); His tag (N); made in house; host or cells: insect cells (baculovirus)
T4 sequence (O60674 828-1132): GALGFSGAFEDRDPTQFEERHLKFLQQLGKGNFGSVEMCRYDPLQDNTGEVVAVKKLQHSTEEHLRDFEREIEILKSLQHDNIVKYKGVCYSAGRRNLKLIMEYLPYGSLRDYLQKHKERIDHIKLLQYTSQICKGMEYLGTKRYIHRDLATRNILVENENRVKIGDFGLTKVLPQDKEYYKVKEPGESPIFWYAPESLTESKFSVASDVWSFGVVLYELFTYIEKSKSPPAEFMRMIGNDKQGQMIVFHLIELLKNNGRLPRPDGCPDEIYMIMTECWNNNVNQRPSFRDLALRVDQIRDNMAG
Procedure, shortened: as §1

[5] = percentage inhibition of the example compound at a concentration of 500 nM or 1 mM (not specified which)
[6] = method AA1 (90 μM ATP) or AA2 (1000 μM ATP), not stated per value
[7] = method AA1 (3 μM ATP) or AA2 (1000 μM ATP), not stated per value
[8] = method AA1 (30 μM ATP) or AA2 (1000 μM ATP), not stated per value
[9] = compound at a concentration of 500 nM or 1 mM (not specified), cells shown as percentage
[10] = compound at 500 nM or 1 mM, 90 μM ATP
[11] = Table B1, cells without percent sign

SMILES: Cc1cc(N2CCOCC2)c2cc1Nc1ncc(Cl)c(n1)Nc1cccc(c1)CC2 [Example A6, 6-Chloro-19-methyl-17-morpholin-4-yl-2,4,8,22-tetraazatetracyclo[14.3.1.1(3,7).1(9,13)]docosa-1(20),3(22),4,6,9(21),10,12,16,18-nonaene trifluoroacetate]
IC50 [1, 6]: 700 nM
IC50 [2, 7]: 802 nM
IC50 ([3]; 90 μM ATP): 497 nM
IC50 (TYK2): 76 nM
IC50 [4, 8]: 8.7 nM

SMILES: Cc1ccc(N2CCC(CC(=O)Nc3ccc4cc3CCc3cncc(c3)Nc3ncc(Cl)c(n3)N4)CC2)nn1 [Example A173, N-[6-Chloro-2,4,8,18,22-pentaazatetracyclo[14.3.1.1(3,7).1(9,13)]docosa-1(20),3(22),4,6,9(21),10,12,16,18-nonaen-12-yl]-2-[1-(6-methylpyridazin-3-yl)piperidin-4-yl]acetamide tris(trifluoroacetate)]
IC50 [1, 6]: 8 nM
IC50 [2, 7]: > 1000 nM
ALK % of inhibition at a concentration of 500 nM or 1 mM [3, 10]: 40%
IC50 (TYK2): 105 nM
IC50 [4, 8]: 89 nM

SMILES: N#Cc1c(Cl)cccc1N1CCC(CC(=O)Nc2ccc3cc2CCc2cncc(c2)Nc2ncc(Cl)c(n2)N3)CC1 [Example A222, 2-[1-(3-Chloro-2-cyanophenyl)piperidin-4-yl]-N-[6-chloro-2,4,8,18,22-pentaazatetracyclo[14.3.1.1(3,7).1(9,13)]docosa-1(20),3(22),4,6,9(21),10,12,16,18-nonaen-12-yl]acetamide tris(trifluoroacetate)]
IC50 [1, 6]: 3.2 nM
IC50 [2, 7]: > 200 nM
ALK % of inhibition at a concentration of 500 nM or 1 mM [3, 10]: 5.6%
IC50 (TYK2): > 200 nM
IC50 [4, 8]: > 200 nM

SMILES: Cc1cnc2nc1Nc1cccc(c1)/C=C\c1cccc(c1)N2 [Example B1, (14Z)-6-Methyl-2,4,8,22-tetraazatetracyclo[14.3.1.1(3,7).1(9,13)]docosa-1(20),3(22),4,6,9(21),10,12,14,16,18-decaene trifluoroacetate]
IC50 ([1]; Table B1): 11 nM
IC50 ([2]; Table B1): > 100 nM
IC50 [3, 11]: 786 nM
IC50 (TYK2; Table B1): 17 nM
IC50 ([4]; Table B1): 5.1 nM

SMILES: Cc1cccc(S(=O)(=O)Nc2ccc3cc2CCc2cccc(c2)Nc2ncc(Cl)c(n2)N3)c1 [Example B148, N-[6-Chloro-2,4,8,22-tetraazatetracyclo[14.3.1.1(3,7).1(9,13)]docosa-1(20), 3(22),4,6,9(21),10,12,16,18-nonaen-12-yl]-3-methylbenzenesulfonamide trifluoroacetate]
IC50 ([1]; Table B1): 0.49 nM
IC50 ([2]; Table B1): 1.1 nM
IC50 [3, 11]: 150 nM
IC50 (TYK2; Table B1): 0.53 nM
IC50 ([4]; Table B1): 0.13 nM

SMILES: Cc1cccc(N2CCC(CC(=O)Nc3ccc4cc3CCc3cncc(c3)Nc3ncc(Cl)c(n3)N4)CC2)c1C#N [Example A236, N-[6-Chloro-2,4,8,18,22-pentaazatetracyclo[14.3.1.1(3,7).1(9,13)]docosa-1(20),3(22),4,6,9(21),10,12,16,18-nonaen-12-yl]-2-[1-(2-cyano-3-methylphenyl)piperidin-4-yl]acetamide tris(trifluoroacetate)]
IC50 [1, 6]: 1.7 nM
IC50 [2, 7]: > 400 nM
ALK % of inhibition at a concentration of 500 nM or 1 mM [3, 10]: 16%
IC50 (TYK2): > 400 nM
IC50 [4, 8]: 150 nM

SMILES: O=C(Nc1ccc2cc1CCc1cccc(c1)Nc1ncc(Cl)c(n1)N2)N[C@@H]1CCNC1 [Example B175, N-[6-Chloro-2,4,8,22-tetraazatetracyclo[14.3.1.1(3,7).1(9,13)]docosa-1(20),3(22),4,6,9(21),10,12,16,18-nonaen-12-yl]-N′-[(3R)-pyrrolidin-3-yl]urea dihydrochloride]
IC50 ([1]; Table B1): 9 nM
IC50 ([2]; Table B1): 69 nM
ALK % of inhibition at a concentration of 500 nM or 1 mM [3, 9]: 18%
IC50 (TYK2; Table B1): 31 nM
IC50 ([4]; Table B1): 18 nM

SMILES: O=C(Nc1cc2cc(c1)Nc1nc(ncc1Cl)Nc1cccc(c1)CC2)c1nc2ccccc2s1 [Example B204, N-[6-Chloro-2,4,8,22-tetraazatetracyclo[14.3.1.1(3,7).1(9,13)]docosa-1(20),3(22),4,6,9(21),10,12,16,18-nonaen-11-yl]-1,3-benzothiazole-2-carboxamide trifluoroacetate]
IC50 ([1]; Table B1): > 1000 nM
IC50 ([2]; Table B1): > 1000 nM
IC50 [3, 11]: > 10000 nM
IC50 (TYK2; Table B1): > 1000 nM
IC50 ([4]; Table B1): 500 nM

SMILES: O=C(Nc1ccc2cc1CCc1cccc(c1)Nc1ncc(Cl)c(n1)N2)C1CCC1 [Example B57, N-[6-Chloro-2,4,8,22-tetraazatetracyclo[14.3.1.1(3,7).1(9,13)]docosa-1(20), 3(22),4,6,9(21),10,12,16,18-nonaen-12-yl]cyclobutanecarboxamide hydrochloride]
IC50 ([1]; Table B1): 12 nM
IC50 ([2]; Table B1): 18 nM
IC50 [3, 11]: 2200 nM
IC50 (TYK2; Table B1): 39 nM
IC50 ([4]; Table B1): 5.3 nM

SMILES: CC(=O)N1CCN(C(=O)COc2ccc3cc2CCc2cccc(c2)Nc2ncc(Cl)c(n2)N3)CC1 [Example A20, 12-[2-(4-Acetylpiperazin-1-yl)-2-oxoethoxy]-6-chloro-2,4,8,22-tetraazatetracyclo[14.3.1.1(3,7).1(9,13)]docosa-1(20),3(22),4,6,9(21),10,12,16,18-nonaene trifluoroacetate]
IC50 [1, 6]: 12 nM
IC50 [2, 7]: 78 nM
ALK % of inhibition at a concentration of 500 nM or 1 mM [3, 10]: 17%
IC50 (TYK2): 27 nM
IC50 [4, 8]: 8.2 nM

More lines, now with the values ahead:

IC50 ([1]; Table B1): 13 nM
IC50 ([2]; Table B1): > 400 nM
ALK % of inhibition at a concentration of 500 nM or 1 mM [3, 5]: 27%
IC50 (TYK2; Table B1): > 400 nM
IC50 ([4]; Table B1): 146 nM
SMILES: CN(Cc1ccc2cc1CCc1cncc(c1)Nc1ncc(Cl)c(n1)N2)CC1CCN(S(=O)(=O)c2ccccc2)CC1 [Example B341, 1-[6-Chloro-2,4,8,18,22-pentaazatetracyclo[14.3.1.1(3,7).1(9,13)]docosa-1(20),3(22),4,6,9(21),10,12,16,18-nonaen-12-yl]-N-methyl-N-{[1-(phenylsulfonyl)piperidin-4-yl]methyl}methanamine tris(trifluoroacetate)]

IC50 ([1]; Table D1): 1.5 nM
IC50 ([2]; Table D1): 13 nM
IC50 ([3]; Table D1, 90 μM ATP): 420 nM
IC50 (TYK2; Table D1): 4.4 nM
IC50 ([4]; Table D1): 1.2 nM
SMILES: O=C(c1cc2cc(c1)OCCSc1cccc(c1)Nc1nc(ncc1Cl)N2)N1CCOCC1 [Example D52, trifluoroacetate]

IC50 ([1]; Table B1): 14 nM
IC50 ([2]; Table B1): 85 nM
ALK % of inhibition at a concentration of 500 nM or 1 mM [3, 9]: 23%
IC50 (TYK2; Table B1): 15 nM
IC50 ([4]; Table B1): 141 nM
SMILES: Cc1cc(C(=O)N2CC[C@H](NC(=O)Nc3ccc4cc3CCc3cncc(c3)Nc3ncc(Cl)c(n3)N4)C2)no1 [Example B265, N-[6-Chloro-2,4,8,18,22-pentaazatetracyclo[14.3.1.1(3,7).1(9,13)]docosa-1(20),3(22),4,6,9(21),10,12,16,18-nonaen-12-yl]-N′-{(3S)-1-[(5-methylisoxazol-3-yl)carbonyl]pyrrolidin-3-yl}urea bis(trifluoroacetate)]

IC50 ([1]; Table B1): 16 nM
IC50 ([2]; Table B1): 41 nM
IC50 [3, 11]: > 10000 nM
IC50 (TYK2; Table B1): 46 nM
IC50 ([4]; Table B1): 15 nM
SMILES: O=C(Nc1cc2cc(c1)Nc1nc(ncc1Cl)Nc1cccc(c1)CC2)c1ccno1 [Example B206, N-[6-Chloro-2,4,8,22-tetraazatetracyclo[14.3.1.1(3,7).1(9,13)]docosa-1(20),3(22),4,6,9(21),10,12,16,18-nonaen-11-yl]isoxazole-5-carboxamide trifluoroacetate]

IC50 ([1]; Table B1): 2.6 nM
IC50 ([2]; Table B1): 38 nM
ALK % of inhibition at a concentration of 500 nM or 1 mM [3, 9]: 19%
IC50 (TYK2; Table B1): 8.7 nM
IC50 ([4]; Table B1): 4.7 nM
SMILES: O=C(Nc1ccc2cc1CCc1cccc(c1)Nc1ncc(Cl)c(n1)N2)N[C@H]1CCN(c2ncccn2)C1 [Example B262, N-[6-Chloro-2,4,8,22-tetraazatetracyclo[14.3.1.1(3,7).1(9,13)]docosa-1(20),3(22),4,6,9(21),10,12,16,18-nonaen-12-yl]-N′-[(3S)-1-pyrimidin-2-ylpyrrolidin-3-yl]urea bis(trifluoroacetate)]

IC50 ([1]; Table B1): 28 nM
IC50 ([2]; Table B1): > 400 nM
ALK % of inhibition at a concentration of 500 nM or 1 mM [3, 5]: 69%
IC50 (TYK2; Table B1): 67 nM
IC50 ([4]; Table B1): 108 nM
SMILES: O=C(Nc1ccc2cc1CCc1cncc(c1)Nc1ncc(Cl)c(n1)N2)N1CCC(c2ccccc2)CC1 [Example B314, N-[6-Chloro-2,4,8,18,22-pentaazatetracyclo[14.3.1.1(3,7).1(9,13)]docosa-1(20),3(22),4,6,9(21),10,12,16,18-nonaen-12-yl]-4-phenylpiperidine-1-carboxamide bis(trifluoroacetate)]

IC50 ([1]; Table D1): 3.8 nM
IC50 ([2]; Table D1): 8.4 nM
IC50 ([3]; Table D1, 90 μM ATP): 450 nM
IC50 (TYK2; Table D1): 3.7 nM
IC50 ([4]; Table D1): 0.2 nM
SMILES: O=C(Cc1ccccc1)Nc1cc2cc(c1)OCCSc1cccc(c1)Nc1nc(ncc1Cl)N2 [Example D64, trifluoroacetate]
